According to US9034857B2 (Health Research, Inc., priority 2010, dated 2015):
Entries after “also recorded” stand apart in the source; their conditions may differ. Where two headings read alike, the source gives them in different places.

What was measured:
[1] = test system: O2- in stationary phase cells; assay: Levels of O2- detected by DHE fluorescence in stationary phase cells; type: cell-based, Saccharomyces cerevisiae; conditions: for Superoxide anions: Table 2 summary, stationary phase
Description: The following materials and methods were used to obtain the data presented in this Example. To assess CLS 50 ml cultures were inoculated with 1% (v/v) of a fresh overnight culture in either SC or YPD. SC was supplemented using known techniques. In experiments that employed media that initially contained 10% glucose, control 2% glucose cultures also contained 8% sorbitol to maintain equivalent osmolarity. Determination of chronological life span, fraction of budded cells, flow cytometry measurements of DNA content and measurements of dihydroethidium (DHE) and dihydrorhodamine 123 (DHR) were used according to standard methods. N-acetylcysteine (NAC) and glutathione (GSH) were dissolved in growth medium, filter sterilized and added to cultures from 100 mM (NAC) or 250 mM (GSH) stocks at the start of experiments. Propidium iodide (PI) was used to assess viability of cells by mixing a 2 μl of cells with an equal volume of 1 mM PI on a microscope slide and examining the slide with a fluorescence microscope equipped with a Texas Red filter. Non-fluorescent cells were scored as intact (live) and fluorescent cells were scored as dead. The total number of cells in cultures was determined by particle counts using a Petroff Hauser counting chamber. Samples for transmission electron microscopy were prepared using standard methods. Briefly, cells cultured at 30° C. in YPD medium for 3 to 5 days were harvested by gentle centrifugation, washed in phosphate buffered saline (PBS) (pH=7.2), resuspended in 2.5% (v/v) glutaraldehyde in PBS and fixed for 40 min at room temperature. Cells were further fixed by 2% freshly prepared potassium permanganate in water for 1 hour at room temperature. Fixed cells were dehydrated with 30%, 50%, 75%, 85%, 95%, and 100% ethanol. Cells were transitioned with propylene oxide, infiltrated in Spurr resin (Electron Microscopy Sciences, PA). Resin was polymerized at 65° C. overnight in the oven. 60 nm ultrathin sections were cut with a diamond knife, stained with 2% uranyl acetate and lead citrate and examined using a Hitachi H-7000 electron microscope, equipped with a 4K×4K cooled CCD digital camera (Gatan, Inc., CA). Values presented in graphs that contain error bars represent means and standard deviations from three or more independent experiments. Other results are representative of at least three independent experiments. Statistical analyses were performed using Student's t-test. P<0.05 was considered statistically significant.

[2] = test system: interleukin-6 release from human macrophages; assay: Interleukin-6 release from human macrophages; type: cell-based
[3] = test system: intracellular O2- in stationary phase budding yeast cells; assay: High throughput flow cytometry DHE screen for reduction of superoxide in stationary phase budding yeast; type: cell-based, S. cerevisiae
[4] = test system: mammalian cells; conditions: cited from earlier work
[5] = test system: Saccharomyces cerevisiae; assay: Chronological lifespan (CLS) of budding yeast; type: cell-based
[6] = test system: budding yeast; conditions: cited from earlier work
[7] = test system: ribonucleotide reductase; conditions: low levels of hydroxyurea; cited from earlier work

For `N[C@@H](CCC(=O)N[C@@H](CS)C(=O)NCC(=O)O)C(=O)O` [GSH, glutathione], the Superoxide anions [1] was “↓” and the “levels of O2- (DHE fluorescence)” value ([1]; wild type cells, day 3 of medium depletion) was “reduced levels of O2-”.
In the case of `Cc1ccc(-c2nn(C(C)(C)C)c3ncnc(N)c23)cc1` [MLS000326642, 1-tert-butyl-3-(4-methylphenyl)pyrazolo[3,4-d]pyrimidin-4-amine], the “inhibition of interleukin-6 release” value [2] is reported as “inhibit interleukin-6 release”, the “dose dependency in re-screening (reduction of superoxide, DHE)” value [3] is reported as “identified by dose dependency; also recorded: exhibited dose dependency” and the “reducing superoxide anions in S. cerevisiae” value [3] is reported as “reducing superoxide anions”.
In the case of `c1ccc2nc3cc4[nH]cnc4cc3nc2c1` [MLS000700045, 1H-imidazo[4,5-b]phenazine], the “inhibition of interleukin-6 release” value [2] is reported as “inhibit interleukin-6 release”, the “reducing superoxide anions in S. cerevisiae” value [3] is reported as “reducing superoxide anions” and the “dose dependency in re-screening (reduction of superoxide, DHE)” value ([3]; dose response assays from 0.004 uM to 30 uM, 7 day incubation, 7% glucose) is reported as “identified by dose dependency; also recorded: exhibited dose dependency”.
For `CC(=O)N[C@@H](CS)C(=O)O` [N-acetylcysteine], the “induction of O2-” value [4] is given as “induction of O2-”, the “levels of O2- (DHE fluorescence)” value [1] is given as “absent” and the Superoxide anions [1] is given as “↑”. For the same compound, the “levels of O2- (DHE fluorescence)” value ([1]; wild type cells, day 3 of medium depletion, listed as NAC) was “dose-dependent increases; also recorded: elevate O2- levels”, the “chronological lifespan (CLS)” value ([5]; sch9Δ cells) was “not sch9Δ cells” and the “chronological lifespan (CLS)” value ([5]; wild type cells, listed as NAC) was “shortened CLS in a dose-dependent fashion; also recorded: shorten CLS”.
In the case of `O=C(Nc1ccccc1-c1cn2c(CN3CCNCC3)csc2n1)c1cnc2ccccc2n1` [SRT1720, reference compound], the “inhibition of interleukin-6 release” value [2] is reported as “inhibit interleukin-6 release” and the “reducing superoxide anions in S. cerevisiae” value [3] is reported as “reducing superoxide anions”.
For `COC1=C(OC)C(=O)C(C/C=C(\C)CC/C=C(\C)CC/C=C(\C)CC/C=C(\C)CC/C=C(\C)CC/C=C(\C)CC/C=C(\C)CC/C=C(\C)CC/C=C(\C)CCC=C(C)C)=C(C)C1=O` [coenzyme Q10], the pro-oxidant effects [6] is listed as “pro-oxidant effects”.
In the case of `NC(=O)NO` [hydroxyurea], the “shortening of CLS” value [7] is listed as 20-27%.
In the case of `Cc1c(C)c2c(c(C)c1O)CC[C@@](C)(CCC[C@H](C)CCC[C@H](C)CCCC(C)C)O2` [α-tocopherol], the pro-oxidant effects [6] is listed as “pro-oxidant effects”.
